How the values were obtained:
[1] = system: MDA-MB-231 cells (human breast carcinoma); assay: in vitro invasion assay through matrigel (Transwell); type: cell-based; settings: preliminary screen
Procedure: Razoxane, various bis(hydroxylated)(2,6-dioxopiperazine)s, and various hydrophobic analogs were tested in an in vitro assay for inhibition of tumor cell penetration of a reconstituted basement membrane, matrigel, isolated from the Englegbreth-Holm-Swarm (EHS) tumor (disclosed in Kleinman et al., Biochem. (1982), 24, 6188-6193) first described by Albini et al, Cancer Res. (1987) 47, 3234-3245. An 8 μm pore filter coated with matrigel separates a lower compartment containing a chemoattractant and an upper compartment containing the cells and test compound. In particular, the following compounds were tested: razoxane, (1α, 2α, 4α, 5α)-4,4'-(4,5-dihydroxy-1,2-cyclohexanediyl)bis(2,6-piperazinedione); (1α, 2α, 4β, 5β)-4,4'-(4,5-dihydroxy-1,2-cyclohexanediyl)bis(2,6-piperazinedione);(1β, 2α,4α,5α)-4,4'-(4,5-dihydroxy-1,2-cyclohexanediyl)bis(2,6-piperazinedione); (1β, 2α, 4α,5β)-4,4'-(4,5-dihydroxy-1,2-cyclohexanediyl)bis(2,6piperazinedione); (1α, 2β, 4α,5β)-4,4'-(4,5-dihydroxy-1,2cyclohexanediyl)bis(2,6-piperazinedione); N,N'-cyclohexane-1,2-diylbis[N(2-ethoxy-2-oxoethyl)]glycine; N,N'-4-cyclohexene-1,2-diylbis[N-(2-ethoxy-2-oxoethyl)-glycine ester; (3aα, 5β, 6β, 7aα)-4,4'-(hexahydro-2,2-dimethyl1,3-benzodioxole-5,6-diyl)bis(2,6-piperazinedione); (3aα, 5α, 6α, 7aα)-4,4'-(hexahydro-2,2-dimethyl-1,3-benzodioxole-5,6-diyl)bis(2,6- piperazinedione); (3aα, 5α, 6β, 7aα)-4,4'-(hexahydro-2,2-dimethyl-1,3-benzodioxole-5,6-diyl)bis-2,6- piperazinedione; (3aα, 5β, 6α, 7aβ)-4,4'-(hexahydro-2,2dimethyl-1,3-benzodioxole-5,6-diyl)bis(2,6-piperazinedione); and (3aα, 5α, 6β, 7aβ)-4,4'-(hexahydro-2,2-dimethyl-1,3-benzodioxole-5,6-diyl) bis(2,6piperazinedione). Metastatic cells are able to degrade the basement membrane protein barrier and migrate through the pores of the filter whereas non-metastatic cells remain on the upper surface. The cells that pass to the under side of the filter are then counted under a microscope. […] Variations of this assay have been used to correlate this in vitro invasion with metastatic potential in vivo (Albini et al. (Id.); Hendrix et al. Cancer Letters (1987); 38, 127-247; Repesh L. A., Invasion Metastasis (1989) 9, 192-208 to select for more highly invasive cells (Teranova et al., Proc. Nat. Acad. Sci., (1986), 83, 465, 464; Tullberg et al., Invasion Metastasis, (1989), 9, 13-26; Sefer et al., Biotechniques, (1990), 9, 324-331), and to test compounds for inhibition (Nakajima et al., Cancer Res. (1989), 49, 1698-1756).
This method has been improved to increase the number of assays which may be performed and analyzed per day. In particular, such improvement comprises the use of disposable Transwells (Costar) units described by Repesh et al., Invasion Metastasis, (1989), 9, 192-208, which consist of an 8 μm pore filter attached to an insert that fits in a 24 well culture plate. Matrigel concentration is titrated from zero to complete inhibition of motility of each invasive cell line used in the assay and for each batch of matrigel. The matrigel concentration which yields 50% or greater inhibition of motility in a 6 hr assay (usually from 15 to 50 μg of protein per filter) is chosen for determination of invasion. Motility of cells through the 8 μm filters is not by passive diffusion since the pore size is smaller than the cells, and is determined in the same chamber in the absence of matrigel. Motility is stimulated two-fold by the presence of fibroblast conditioned medium (3T3 cells) as a chemoattractant (data not shown). The cell lines used are HT-1080, a human fibrosarcoma, and MDA-MB-231, a human breast carcinoma (both available from the American Type Tissue Culture). These cell lines express both the 72 kD and the 92 kD collagenase type IV as determined by zymography (data not shown).
For inhibition studies, 5×10^5 cells are plated in 200 μl of DMEM+0.1% BSA+the inhibitor (or appropriate solvent control) into the upper chamber of the Transwell. […]

retired bred BALB/C mice = assay: septic shock induced by i.v. endotoxin (E. coli 026:B6); type: in vivo; settings: razoxane 100 μg/g i.p. before 200 μg endotoxin i.v.; heparin
Procedure: Two retired bred BALB/C mice were injected with 100 μg of endotoxin and 3 units of heparin i.v., followed by 10 units heparin subcutaneously. Another two mice were treated the same except with 200 μg of endotoxin. All died within 24 h.
Six retired bred BALB/C mice were treated with razoxane (100 μg/g body weight i.p.). The mice were then injected with 200 μg of endotoxin and 3 units of heparin i.v., followed by 10 units heparin subcutaneously.

S180 tumors = settings: cited from earlier work

| Structure (SMILES) | inhibition of invasion [1] | effect on cell motility ([1]; no matrigel) | mice surviving more than 24 h (retired bred BALB/C mice) | inhibition of S180 tumors (S180 tumors; 5 doses at 30 mg/kg) | calculated ratio of maximum tolerated dose to the dose required for 90% inhibition of S180 tumor growth (S180 tumors; therapeutic index in vivo) |
| --- | --- | --- | --- | --- | --- |
| CC1(C)O[C@H]2C[C@H](N3CC(=O)NC(=O)C3)[C@@H](N3CC(=O)NC(=O)C3)C[C@@H]2O1 (relative stereo) [Compound 80, (3aα, 5β, 6α, 7aβ)-4,4'-(hexahydro-2,2-dimethyl-1,3-benzodioxole-5,6-diyl)bis(2,6-piperazinedione)] | inhibit invasion | without inhibiting cell motility | – | – | – |
| CC(CN1CC(=O)NC(=O)C1)N1CC(=O)NC(=O)C1 (centres unmarked) [razoxane] | – | – | Two out of six | 93% | 9.8 |

Source: patent publication US5866570A, “Treatment of vascular leakage and related syndrome such as septic shock by administration of metalloproteinase inhibitors” (Wisconsin Alumni Research Foundation, priority 1994, dated 1999)
